Experimental data reported in US9815866B2, “Peptides that bind to epithelial cell adhesion molecule” (JAPANESE FOUNDATION FOR CANCER RESEARCH, priority 2012, dated 2017).
Bridge positions count the residues as written; N and C are the ends. Peptide text beside a SMILES is read from it.

Legend:
EpCAM [1] = molecular target: T1, EpCAM (Homo sapiens, UniProt P16422); test: Dissociation constant of EpCAM-binding peptide and EpCAM by fluorescence depolarization method; settings: immediately after chemical synthesis, no oxidation
T1 construct: with insertions myc and His tags at the C terminus of the extracellular domain; myc (C); made in house; host or cells: HEK-293T
T1 sequence (P16422 24-265 limits assumed): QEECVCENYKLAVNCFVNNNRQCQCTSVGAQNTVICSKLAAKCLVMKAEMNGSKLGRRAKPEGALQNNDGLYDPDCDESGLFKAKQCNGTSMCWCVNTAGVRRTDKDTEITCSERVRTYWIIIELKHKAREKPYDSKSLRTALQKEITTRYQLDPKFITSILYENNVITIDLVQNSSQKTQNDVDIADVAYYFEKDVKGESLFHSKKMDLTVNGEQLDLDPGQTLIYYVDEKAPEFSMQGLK
Procedure: The obtained EpCAM peptides were assayed for their strength of binding to EpCAM by the fluorescence depolarization method, which is a method for evaluating the interaction between molecules. Each fluorescently labeled EpCAM peptide and EpCAM are used to determine the strength of binding from the kinetics of depolarization by Brownian movement.
Each FITC-modified EpCAM peptide or control peptide was suspended at a concentration of approximately 100 μM in PBS. After centrifugation, the supernatant was collected and diluted 10-fold, and the absorbance was measured at 495 nm From the measurement value, the molar concentration of the peptide was determined using the formula of Beer-Lambert of the following expression 1: A=E×b×C [Expression 1]
EpCAM is diluted with PBS into several concentrations from 0 until reaching equilibrium (40 nM for the Ep133 peptide), and the FITC-modified peptide whose precise concentration has been measured by the aforementioned method is added to the dilutions thus prepared. The sample was left at a temperature for measurement for 30 minutes or longer and subjected to polarization measurement using a spectrofluorometer FP-6500 (JASCO Corp.) equipped with an automatic polarization measurement unit (JASCO Corp., APH-103). Kd was estimated by curve fitting according to the Hill equation.
The dissociation constants of the two types of peptides Ep133 (FIG. 2(A)) and Ep114 (FIG. 2(C)), which were obtained in the present invention and had the high ability to bind to EpCAM, were measured by the fluorescence depolarization method.
The dissociation constants of the EpCAM-binding peptide Ep301 (FIG. 2(D)) disclosed in Patent Literature 2 and Ep301 control (FIG. 2(E)), which was a control peptide derived from Ep301 by the substitution of cysteine at positions 5 and 10 by serine, and a sequence of EpCAM from residue 106 to 119 (FIG. 2(F)) having partial homology to EpCAM-binding peptides were measured similarly.

HT-29-derived exosomes = molecular target: T2, HT-29-derived exosomes (Homo sapiens, UniProt P16422); test: ELISA with immobilized biotinylated peptide and HT-29-derived exosomes; format: binding; settings: increasing HT-29-derived exosomes
T2 construct: endogenous in cells; host or cells: exosomes from HT-29 cells
T2 sequence (P16422 24-314): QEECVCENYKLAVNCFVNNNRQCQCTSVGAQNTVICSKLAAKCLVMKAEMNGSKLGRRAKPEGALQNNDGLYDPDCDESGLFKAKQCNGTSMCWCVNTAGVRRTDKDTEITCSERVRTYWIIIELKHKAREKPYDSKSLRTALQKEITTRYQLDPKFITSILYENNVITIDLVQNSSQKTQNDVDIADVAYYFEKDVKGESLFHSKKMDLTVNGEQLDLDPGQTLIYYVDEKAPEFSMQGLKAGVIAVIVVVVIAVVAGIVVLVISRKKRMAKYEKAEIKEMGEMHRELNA
Procedure: was immobilized onto an ELISA plate via streptavidin, and HT-29-derived exosomes were added thereto and reacted. After washing, bound exosomes were detected using the anti-EpCAM antibody. The biotin-modified peptide PE194 of the L3A variant was immobilized in the same way as above and used as a control.

MCF-7 cells = molecular target: T3, MCF-7 cells (Homo sapiens, UniProt P16422); test: Staining of EpCAM in MCF-7 cells; format: cell-based; settings: data not shown
T3 construct: in MCF-7 cells known to express EpCAM; endogenous in cells; host or cells: MCF-7
T3 sequence (P16422 24-314): T2 sequence (P16422 24-314)
Procedure: (§1) The HT-29 cells as EpCAM-expressing cells were cultured by spheroid culture method as follows: 4×10^5 cells are suspended in 3 ml of D-MEM/F-12 medium (Dulbecco's Modified n Eagle Medium:Nutrient Mixture 12, 1:1 mixture) (Gibco/Life Technologies Inc.) supplemented with 20 ng/ml human EGF (Miltenyi Biotec K.K.), 20 ng/ml human EGF-2 (Miltenyi Biotec K.K.), B-27 (Gibco/Life Technologies Inc.), penicillin, and streptomycin and inoculated to EZ-Sphere®, a Petri dish of 3.5 cm in diameter coated with MPC polymer. After static culture for 72 hours, the cells were collected while the medium was suspended by pipetting. The cells were stained with the FITC-modified peptide and observed under a fluorescence microscope. The staining was carried out by adding 4 μM peptide into a McCoy's 5A medium and standing still at room temperature for 30 minutes.
In addition to HT-29 cells, the staining of EpCAM using Ep114 was also confirmed by a similar method in MCF-7 cells known to express EpCAM (data not shown).

[2] = molecular target: T4, EpCAM-expressing cells HT-29 (Homo sapiens, UniProt P16422); test: Cell staining of HT-29 cells, confocal microscope; format: cell-based; settings: HT-29, FITC-labeled peptide 0.4 μM, 37° C., 1 hour
T4 construct: EpCAM on HT-29 was stained at a concentration of 0.4 μM; endogenous in cells; host or cells: HT-29
T4 sequence (P16422 24-314): T2 sequence (P16422 24-314)
Procedure: (§2) The EpCAM-expressing cells HT-29 or the non-expressing cells Hs578T were cultured in a medium containing 10% fetal calf serum in a Petri dish for 48 hours and then incubated at 37° C. for 1 hour with the FITC-labeled Ep114 peptide or a L3A control labeled peptide at a final concentration of 0.4 μM Immediately thereafter, the cells were observed under a confocal microscope.

[3] = system: non-EpCAM-expressing cells Hs578T; test: Cell staining of Hs578T cells, confocal microscope; format: cell-based; settings: FITC-labeled peptide 0.4 μM, 37° C., 1 hour
Procedure: as §2

[4] = molecular target: T5, 293T cells transfected with full-length EpCAM gene (Homo sapiens, UniProt P16422); test: Staining of 293T cells forced to express EpCAM with FITC-modified peptide; format: cell-based; settings: FITC-modified peptide with or without oxidation treatment
T5 construct: an expression plasmid in which the full-length EpCAM gene incorporated; expressed in transfected cells; host or cells: 293T
T5 sequence (P16422 24-314): T2 sequence (P16422 24-314)
Description: 293T cells expressing no endogenous EpCAM were transfected with pkk196, an expression plasmid in which the full-length EpCAM gene incorporated, and forced to express EpCAM, followed by staining using FITC-modified Ep114.

[5] = S—S bond formation (autoxidation) of peptide by fluorescence depolarization method and HPLC; format: physicochemical
Description: The S—S bond formation of Ep114 was studied in detail using the fluorescence depolarization method and HPLC.

EpCAM on HT-29 = molecular target: T6, EpCAM on HT-29 (Homo sapiens, UniProt P16422); test: Staining of spheroid-cultured HT-29 cells with FITC-modified peptide; format: cell-based; set-up: endogenous in cells; host or cells: HT-29; settings: FITC-labeled peptide, 0.4 μM
T6 sequence (P16422 24-314): T2 sequence (P16422 24-314)
Procedure: as §1, with “The staining was carried out by adding 4 μM peptide into a McCoy's 5A medium and standing still at room temperature for 30 minutes.” left out

EpCAM [6] = molecular target: T7, EpCAM (Homo sapiens, UniProt P16422); test: Binding activity against EpCAM after oxidation treatment (S—S bond formation, HPLC fractionation)
T7 sequence (P16422 24-314): T2 sequence (P16422 24-314)

EpCAM [7] = molecular target: T7, EpCAM; settings: peptide separated from the phage; earlier work (Patent Literature 2); cited from earlier work

| binding activity against EpCAM (EpCAM [1]) | ELISA signal (HT-29-derived exosomes) | staining of EpCAM (MCF-7 cells) | ability to stain EpCAM [4] | staining of EpCAM on HT-29 spheroids (EpCAM on HT-29) | binding activity against EpCAM (EpCAM [6]) | SMILES | staining of cell membrane portions [2] | staining [3] | S—S bond formation ([5]; in PBS at 4° C. or frozen at −20° C., data not shown) | oxidation ([5]; in the presence of 10% FCS) | ability of the peptide to bind to EpCAM (EpCAM [7]) |
| --- | --- | --- | --- | --- | --- | --- | --- | --- | --- | --- | --- |
| no binding activity against EpCAM | enhancement in ELISA signal was observed | confirmed | equivalent ability to stain EpCAM | stained | – | CC[C@H](C)[C@@H]1NC(=O)[C@H](CC(N)=O)NC(=O)[C@H](CCCNC(=N)N)NC(=O)[C@H](C(C)C)NC(=O)[C@@H](NC(=O)[C@H](CCC(N)=O)NC(=O)[C@H](CC(C)C)NC(=O)[C@H](Cc2c[nH]cn2)NC(=O)[C@@H](N)CCCCN)CSSC[C@@H](C(=O)N[C@@H](Cc2c[nH]c3ccccc23)C(=O)N[C@@H](CO)C(=O)O)NC1=O [Ep114, KHLQCVRNICWS] (H-KHLQCVRNICWS-OH; disulfide 5-10; N-terminus and C-terminus assumed) | staining of the cell membrane portions of the EpCAM-expressing cells HT-29 was observed | no staining was observed | oxidized after 10 days to form an S—S bond | rapidly oxidized | – |
| – | – | – | – | – | gain binding activity against EpCAM | CC[C@H](C)[C@@H]1NC(=O)[C@@H](NC(=O)[C@H](CCC(N)=O)NC(=O)[C@H](CC(C)C)NC(=O)[C@H](CO)NC(=O)[C@@H](N)CCCCN)CSSC[C@@H](C(=O)N[C@@H](Cc2c[nH]c3ccccc23)C(=O)N2CCC[C@H]2C(=O)O)NC(=O)[C@H](CC(C)C)NC(=O)[C@H](CC(N)=O)NC(=O)[C@H](CC(N)=O)NC1=O [Ep301, KSLQCINNLCWP, reference compound] (H-KSLQCINNLCWP-OH; disulfide 5-10; N-terminus and C-terminus assumed) | – | – | – | – | weak |
